Legend:
Human adenovirus 2 = experiment: Antiviral activity against Human adenovirus 2; type: functional, organism-based; settings: Human mastadenovirus C
Simplexvirus = experiment: Antiviral activity against Herpes simplex virus; type: functional, organism-based
Human betaherpesvirus 5 = experiment: Antiviral activity against Human cytomegalovirus; type: functional, organism-based; settings: Human betaherpesvirus 5
Human alphaherpesvirus 1 = experiment: Antiviral activity against Herpes simplex virus 1; type: functional, organism-based; settings: Human alphaherpesvirus 1
Human gammaherpesvirus 4 = experiment: Antiviral activity against Epstein-Barr virus; type: functional, organism-based
Human alphaherpesvirus 3 = experiment: Antiviral activity against Varicella zoster virus; type: functional, organism-based
Human alphaherpesvirus 2 = experiment: Antiviral activity against Herpes simplex virus 2; type: functional, organism-based; settings: Human alphaherpesvirus 2
Vaccinia virus = experiment: Antiviral activity against Vaccinia virus; type: functional, organism-based, Orthopoxvirus vaccinia; settings: Orthopoxvirus vaccinia
Hepatitis B virus = experiment: Antiviral activity against Hepatitis B virus; type: functional, organism-based
[1] = system: Human immunodeficiency virus 1; experiment: Antiviral activity against HIV1; type: functional, organism-based
[2] = system: Moloney murine sarcoma virus; experiment: Antiviral activity against Moloney sarcoma virus; type: functional, organism-based
Cowpox virus = experiment: Antiviral activity against Cowpox virus; type: functional, organism-based
Human rhinovirus sp. = experiment: Antiviral activity against Human rhinovirus; type: functional, organism-based
Influenza A virus = experiment: Antiviral activity against influenza H1N1 virus; type: functional, organism-based
[3] = system: unidentified influenza virus; experiment: Antiviral activity against influenza virus; type: functional, organism-based
[4] = system: Human immunodeficiency virus 2; experiment: Antiviral activity against HIV2; type: functional, organism-based

Nc1ccn([C@H]2CC[C@@H](CO)O2)c(=O)n1 [ZALCITABINE] was tested, and the IC50 (Human adenovirus 2) was 3300 nM.
With N#Cc1cn([C@@H]2O[C@H](CO)[C@@H](O)[C@@H]2F)c2ncnc(N)c12 the IC50 (Simplexvirus) was 470 nM and the IC50 (Human betaherpesvirus 5) was 25 nM.
Nc1nc2c(ncn2/C=C2/CC2(CO)CO)c(=O)[nH]1 [FILOCICLOVIR] showed an IC50 (Human alphaherpesvirus 1) of 380000 nM, an IC50 (Human gammaherpesvirus 4) of 45000 nM and an IC50 (Human alphaherpesvirus 3) of 380000 nM. For the same compound, the IC50 (Human alphaherpesvirus 2) was 380000 nM.
In the case of Nc1nc2c(ncn2COC(CO)CO)c(=O)[nH]1 [GANCICLOVIR], the IC50 (Human adenovirus 2) is reported as 35000 nM and the IC50 (Vaccinia virus) is reported as 392000 nM.
In the case of Cc1cn(/C=C2/CC2(F)CO)c(=O)[nH]c1=O (centres undefined), the IC50 (Hepatitis B virus) is reported as 20000 nM, the IC50 (Human gammaherpesvirus 4) is reported as 51700 nM and the IC50 [1] is reported as 100000 nM. For the same compound, the IC50 (Human alphaherpesvirus 3) was 620 nM.
Compound O=C(NCc1ccc(Cl)cc1)c1cnc2c(F)cccc2c1O has an IC50 (Simplexvirus) of 13000 nM, an IC50 (Human alphaherpesvirus 3) of 1200 nM and an IC50 (Human betaherpesvirus 5) of 11000 nM.
Nc1nc(O)cc(NC2CC2)n1 was tested, and the IC50 (Human alphaherpesvirus 1) was 2.41 nM and the IC50 [2] was 0.801 nM.
In the case of Nc1cc(OCCOCP(=O)(O)O)ncn1, the IC50 (Human alphaherpesvirus 1) is reported as 6430 nM and the IC50 [2] is reported as 5220 nM.
Nc1cc(SCCOCP(=O)(O)O)nc(N)n1 was tested, and the IC50 (Human alphaherpesvirus 1) was 0.104 nM, the IC50 [2] was 607 nM and the IC50 (Human alphaherpesvirus 3) was 0.0536 nM. The IC50 (Human alphaherpesvirus 2) was 0.286 nM.
Nc1ccn([C@@H]2CS[C@H](CO)O2)c(=O)n1 [LAMIVUDINE] showed an IC50 (Human adenovirus 2) of 100000 nM, an IC50 (Cowpox virus) of 436000 nM and an IC50 (Vaccinia virus) of 436000 nM.
CCOC(=O)/C=C/[C@H](C[C@@H]1CCNC1=O)NC(=O)C1=Cc2ccccc2OC1 gave an IC50 (Human rhinovirus sp.) of 1190 nM.
Work on Nc1nc(NC2CC2)cc(OCCOCP(=O)(O)O)n1 yielded an IC50 (Human alphaherpesvirus 1) of 0.789 nM, an IC50 [1] of 0.329 nM and an IC50 [2] of 0.132 nM. For the same compound, the IC50 (Human alphaherpesvirus 3) was 0.164 nM and the IC50 (Human alphaherpesvirus 2) was 0.263 nM.
With CCOC(=O)/C=C/[C@H](CCC(N)=O)NC(=O)[C@H](Cc1ccc(F)c(F)c1)n1cccc(NC(=O)OCc2ccccc2)c1=O the IC50 (Human rhinovirus sp.) was 3 nM.
Work on CCC(CC)[C@H](NC(C)=O)[C@@H]1[C@H](O)[C@@H](C(=O)O)C[C@H]1NC(=N)N [PERAMIVIR ANHYDROUS] yielded an IC50 (Influenza A virus) of 200 nM and an IC50 [3] of 8400 nM.
Work on CCOC(=O)/C=C/[C@H](C[C@@H]1CCNC1=O)NC(=O)/C=C/c1ccc(C)c(Br)c1 yielded an IC50 (Human rhinovirus sp.) of 1290 nM.
With CCOC(=O)/C=C/[C@H](CCC(N)=O)NC(=O)[C@H](CC1CCCCC1)n1cccc(NC(=O)OCc2ccccc2)c1=O the IC50 (Human rhinovirus sp.) was 178 nM.
With CCOC(=O)/C=C/[C@H](CCC(N)=O)NC(=O)[C@H](Cc1ccccc1)n1cccc(NC(=O)c2cc(Cl)on2)c1=O the IC50 (Human rhinovirus sp.) was 240 nM.
CCOC(=O)/C=C/[C@H](C[C@@H]1CCNC1=O)NC(=O)/C=C/c1ccc2c(c1)OCO2 showed an IC50 (Human rhinovirus sp.) of 1810 nM.
Compound Nc1ncnc2c1c(Br)cn2COC(CO)CO has an IC50 (Simplexvirus) of 1800 nM and an IC50 (Human betaherpesvirus 5) of 1500 nM.
With Cn1cnc2c(NCc3ccccc3)nc(NCCO)nc21 [OLOMOUCINE] the IC50 (Simplexvirus) was 100000 nM.
CCOC(=O)/C=C/[C@H](C[C@@H]1CCNC1=O)NC(=O)C1=Cc2cc(Br)ccc2OC1 was tested, and the IC50 (Human rhinovirus sp.) was 180 nM.
COc1nc(N)nc2c1ncn2/C=C1/CC1(CO)CO was tested, and the IC50 (Human alphaherpesvirus 1) was 361000 nM, the IC50 (Human gammaherpesvirus 4) was 161000 nM and the IC50 (Human alphaherpesvirus 3) was 3000 nM. It also gave an IC50 (Human alphaherpesvirus 2) of 361000 nM.
In the case of CCOC(=O)/C=C/[C@H](C[C@@H]1CCNC1=O)NC(=O)[C@H](Cc1ccccc1)n1cccc(NC(=O)OCc2ccccc2)c1=O, the IC50 (Human rhinovirus sp.) is reported as 3 nM.
CCOC(=O)/C=C/[C@H](C[C@@H]1CCNC1=O)NC(=O)/C=C/c1cccc(Br)c1 gave an IC50 (Human rhinovirus sp.) of 1400 nM.
In the case of Cc1ccc(Cn2c(N)c(C#N)c3c(N)ncnc32)cc1, the IC50 (Simplexvirus) is reported as 60000 nM.
Nc1cc(=O)n(CCOCP(=O)(O)O)cn1 was tested, and the IC50 (Human alphaherpesvirus 1) was 1.61 nM, the IC50 [1] was 0.402 nM and the IC50 [2] was 0.554 nM. For the same compound, the IC50 (Human alphaherpesvirus 3) was 0.201 nM, the IC50 (Human alphaherpesvirus 2) was 1.61 nM and the IC50 [4] was 0.402 nM.
Nc1nc2c(ncn2/C=C2\CC2(F)CO)c(=O)[nH]1 (centres undefined) gave an IC50 (Hepatitis B virus) of 20000 nM, an IC50 (Human gammaherpesvirus 4) of 20000 nM and an IC50 [1] of 100000 nM. It also gave an IC50 (Human alphaherpesvirus 3) of 79600 nM.
For CCOC(=O)/C=C/[C@H](C[C@@H]1CCNC1=O)NC(=O)C1=Cc2cc(Cl)ccc2OC1, the IC50 (Human rhinovirus sp.) was 160 nM.
With Nc1cc(O)nc(SCCOCP(=O)(O)O)n1 the IC50 (Human alphaherpesvirus 1) was 1.42 nM, the IC50 [1] was 0.356 nM and the IC50 [2] was 0.256 nM. It also gave an IC50 (Human alphaherpesvirus 3) of 0.178 nM and an IC50 (Human alphaherpesvirus 2) of 1.42 nM.
Cc1cn(/C=C2\CC2(F)CO)c(=O)[nH]c1=O (centres undefined) gave an IC50 (Hepatitis B virus) of 20000 nM, an IC50 (Human gammaherpesvirus 4) of 20000 nM and an IC50 [1] of 100000 nM. The IC50 (Human alphaherpesvirus 3) was 442000 nM.
For Nc1ncnc2c1ncn2C[C@@H](CO)OCP(=O)(O)O, the IC50 (Human adenovirus 2) was 630 nM, the IC50 (Cowpox virus) was 5000 nM and the IC50 (Vaccinia virus) was 3500 nM.
O=C(NCc1ccc(Cl)cc1)c1cnc2ccc(C#CCO)cc2c1O showed an IC50 (Simplexvirus) of 20000 nM and an IC50 (Human alphaherpesvirus 3) of 680 nM.
CCOC(=O)/C=C/[C@H](CCC(N)=O)NC(=O)[C@H](Cc1ccccc1)n1cccc(NC(=O)C(C)(C)C)c1=O showed an IC50 (Human rhinovirus sp.) of 518 nM.
Compound Nc1nc(OCCOCP(=O)(O)O)cc(OCCOCP(=O)(O)O)n1 has an IC50 (Human alphaherpesvirus 1) of 0.596 nM, an IC50 [1] of 0.141 nM and an IC50 [2] of 0.107 nM. It also gave an IC50 (Human alphaherpesvirus 3) of 0.124 nM, an IC50 (Human alphaherpesvirus 2) of 0.993 nM and an IC50 [4] of 0.199 nM.
With CCOC(=O)/C=C/[C@H](CCC(N)=O)NC(=O)[C@H](Cc1ccccc1)n1cccc(NC(=O)C2SCCS2)c1=O the IC50 (Human rhinovirus sp.) was 104 nM.
With CCOC(=O)/C=C/[C@H](C[C@@H]1CCNC1=O)NC(=O)c1cc(-c2ccccc2)oc1C the IC50 (Human rhinovirus sp.) was 1940 nM.
For CCCC(CCC)C(NC(C)=O)C1CC(C(=O)O)CC1NC(=N)N (centres undefined), the IC50 (Influenza A virus) was 720 nM.
CCC(CC)C(NC(C)=O)C1CC(C(=O)O)CC1NC(=N)N (centres undefined) gave an IC50 (Influenza A virus) of 640 nM.
O=C(O)P(=O)(O)O [FOSCARNET] was tested, and the IC50 (Human adenovirus 2) was 500000 nM and the IC50 (Human betaherpesvirus 5) was 7000 nM.
With CCOC(=O)/C=C/[C@H](CCC(N)=O)NC(=O)[C@H](Cc1ccc(F)cc1)n1cccc(NC(=O)OCc2ccccc2)c1=O the IC50 (Human rhinovirus sp.) was 14 nM.
Work on Nc1nc(OCCOCP(=O)(O)O)cc(=O)n1CCOCP(=O)(O)O yielded an IC50 (Human alphaherpesvirus 1) of 0.993 nM, an IC50 [1] of 0.248 nM and an IC50 [2] of 0.266 nM. For the same compound, the IC50 (Human alphaherpesvirus 3) was 0.124 nM, the IC50 (Human alphaherpesvirus 2) was 0.993 nM and the IC50 [4] was 0.248 nM.
With CCCCCCCCCCCCCCCCCCOCCOP(=O)(O)CO[C@H](CO)Cn1ccc(N)nc1=O the IC50 (Simplexvirus) was 1 nM and the IC50 (Vaccinia virus) was 240 nM.
CN(C)c1cc(OCCOCP(=O)(O)O)nc(N)n1 showed an IC50 (Human alphaherpesvirus 1) of 1.37 nM, an IC50 [1] of 0.342 nM and an IC50 [2] of 0.455 nM. For the same compound, the IC50 (Human alphaherpesvirus 3) was 0.171 nM, the IC50 (Human alphaherpesvirus 2) was 1.37 nM and the IC50 [4] was 0.342 nM.
N#Cc1cn([C@@H]2O[C@H](CO)[C@@H](O)[C@H]2O)c2ncnc(N)c12 [TOYOCAMYCIN] showed an IC50 (Simplexvirus) of 38000 nM.
In the case of CCCCCCCCCCCCCCCCOCCCOP1(=O)CO[C@@H](CN2CCC(N)=NC2=O)CO1 (some centres undefined), the IC50 (Simplexvirus) is reported as 40 nM, the IC50 (Human betaherpesvirus 5) is reported as 40 nM and the IC50 (Vaccinia virus) is reported as 5600 nM.
Work on CCOC(=O)/C=C/[C@H](CCC(N)=O)NC(=O)[C@H](Cc1ccccc1)n1cccc(NC(C)=O)c1=O yielded an IC50 (Human rhinovirus sp.) of 888 nM.
CCOC(=O)/C=C/[C@H](C[C@H]1CCNC1=O)NC(=O)[C@H](Cc1ccccc1)n1cccc(NC(=O)OCc2ccccc2)c1=O was tested, and the IC50 (Human rhinovirus sp.) was 469 nM.
In the case of Nc1nc(N)c(CC(=O)O)c(OCCOCP(=O)(O)O)n1, the IC50 (Human alphaherpesvirus 1) is reported as 1.2 nM, the IC50 [1] is reported as 0.3 nM and the IC50 (Human alphaherpesvirus 3) is reported as 0.15 nM. The IC50 (Human alphaherpesvirus 2) was 1.2 nM, the IC50 (Human betaherpesvirus 5) was 0.15 nM and the IC50 [4] was 0.3 nM. It also gave an IC50 (Vaccinia virus) of 1.2 nM.
O=C(NCc1ccc(Cl)cc1)c1cnc2ccc(CCCO)cc2c1O gave an IC50 (Simplexvirus) of 11000 nM.
For CCOC(=O)/C=C/[C@H](CCC(N)=O)NC(=O)Cn1cccc(NC(=O)OCc2ccccc2)c1=O, the IC50 (Human rhinovirus sp.) was 10000 nM.
C=CCc1c(N)nc(N)nc1OCCOCP(=O)(O)O was tested, and the IC50 (Human alphaherpesvirus 1) was 1.2 nM, the IC50 [1] was 0.3 nM and the IC50 (Human alphaherpesvirus 3) was 0.15 nM. It also gave an IC50 (Human alphaherpesvirus 2) of 1.2 nM, an IC50 (Human betaherpesvirus 5) of 0.15 nM and an IC50 [4] of 0.79 nM. It also gave an IC50 (Vaccinia virus) of 1.2 nM.
Compound Nc1ncnc2c1c(Br)cn2COCCO has an IC50 (Simplexvirus) of 16000 nM.
Work on CCOC(=O)/C=C/[C@H](CCC(N)=O)NC(=O)[C@H](Cc1ccccc1)n1cccc(NC(=O)c2cc(C)on2)c1=O yielded an IC50 (Human rhinovirus sp.) of 16 nM.
In the case of CCOC(=O)/C=C/[C@H](C[C@@H]1CCNC1=O)NC(=O)c1ccc2ccccc2c1, the IC50 (Human rhinovirus sp.) is reported as 150 nM.

Source: ChEMBL document CHEMBL1136837, “Unified QSAR approach to antimicrobials. 4. Multi-target QSAR modeling and comparative multi-distance study of the giant components of antiviral drug-drug complex networks” (Bioorg Med Chem, 2009)
